In publication PMC8449129, “Single tracer-based protocol for broad-spectrum kinase profiling in live cells with NanoBRET” (STAR Protocols, 2021) one finds inhibition data, which are given here for one compound.

Test in all cases: cell-based
Common to all, as to design: NanoBRET live-cell target engagement; % occupancy from displacement of tracer K10 on NanoLuc-kinase fusions, mean n=3
Details in all cases: HEK293, read-out: % inhibition

One assay deals with STK17B (Homo sapiens, UniProt O94768). The method, boiled down: (§1)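 Live-cell NanoBRET target engagement: cells expressing kinase–NanoLuc fusion with tracer treated with compound 2 h at 37 °C, 5% CO2. BRET read from donor (450 nm) and acceptor (610/630 nm) emission with 20 μM extracellular NanoLuc inhibitor; % occupancy calculated relative to tracer+DMSO and zero-BRET controls.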
STK17B, sequence (O94768 whole entry, the tested form may be a part): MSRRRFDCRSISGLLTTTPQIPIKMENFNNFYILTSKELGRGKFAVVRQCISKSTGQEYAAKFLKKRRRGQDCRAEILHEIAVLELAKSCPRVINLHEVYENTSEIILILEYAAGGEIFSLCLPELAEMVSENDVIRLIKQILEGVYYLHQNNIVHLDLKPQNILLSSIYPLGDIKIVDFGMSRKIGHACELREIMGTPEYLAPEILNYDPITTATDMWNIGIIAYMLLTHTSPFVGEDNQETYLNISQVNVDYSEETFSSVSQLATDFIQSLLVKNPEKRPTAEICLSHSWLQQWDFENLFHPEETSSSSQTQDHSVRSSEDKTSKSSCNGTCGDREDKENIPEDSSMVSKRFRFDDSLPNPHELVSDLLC

The target of another assay is STK11 (Homo sapiens, UniProt Q15831). The method, boiled down:
as §1

The target in a further assay is IRAK4 (Homo sapiens, UniProt Q9NWZ3). The method, boiled down: as §1
IRAK4, sequence (Q9NWZ3 whole entry): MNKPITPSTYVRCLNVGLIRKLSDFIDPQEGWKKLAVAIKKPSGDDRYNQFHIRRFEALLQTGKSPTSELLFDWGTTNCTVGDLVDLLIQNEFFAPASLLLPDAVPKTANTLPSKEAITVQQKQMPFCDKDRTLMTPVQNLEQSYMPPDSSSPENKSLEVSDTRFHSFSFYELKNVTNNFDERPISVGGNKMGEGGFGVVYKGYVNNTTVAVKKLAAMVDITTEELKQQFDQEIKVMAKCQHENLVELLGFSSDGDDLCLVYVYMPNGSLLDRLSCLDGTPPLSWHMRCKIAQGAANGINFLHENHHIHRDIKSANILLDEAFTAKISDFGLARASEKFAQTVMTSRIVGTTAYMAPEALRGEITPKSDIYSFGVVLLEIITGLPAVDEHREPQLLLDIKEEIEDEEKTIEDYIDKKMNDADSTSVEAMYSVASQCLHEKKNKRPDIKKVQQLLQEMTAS
Another assay has as its target T1, JNK3 (Homo sapiens, UniProt P53779).
T1 construct: gene MAPK10
The method, boiled down: as §1

A further assay has as its target RPS6KA6 (Homo sapiens, UniProt Q9UK32). The method, boiled down:
as §1

In the next assay the target is LRRK2 (Homo sapiens, UniProt Q5S007). The method, boiled down:
as §1

The target in the next assay is CDK6 (Homo sapiens, UniProt Q00534). The method, boiled down:
as §1

In the next assay the target is MYLK4 (Homo sapiens, UniProt Q86YV6). The method, boiled down: as §1
The target in the next assay is CDK16 (Homo sapiens, UniProt Q00536). The method, boiled down: as §1
A further assay addresses MAP3K4 (Homo sapiens, UniProt Q9Y6R4). The method, boiled down: as §1
Another assay has as its target TXK (Homo sapiens, UniProt P42681). The method, boiled down: as §1
The target in the next assay is FER (Homo sapiens, UniProt P16591). The method, boiled down: as §1
FER, sequence (P16591 whole entry): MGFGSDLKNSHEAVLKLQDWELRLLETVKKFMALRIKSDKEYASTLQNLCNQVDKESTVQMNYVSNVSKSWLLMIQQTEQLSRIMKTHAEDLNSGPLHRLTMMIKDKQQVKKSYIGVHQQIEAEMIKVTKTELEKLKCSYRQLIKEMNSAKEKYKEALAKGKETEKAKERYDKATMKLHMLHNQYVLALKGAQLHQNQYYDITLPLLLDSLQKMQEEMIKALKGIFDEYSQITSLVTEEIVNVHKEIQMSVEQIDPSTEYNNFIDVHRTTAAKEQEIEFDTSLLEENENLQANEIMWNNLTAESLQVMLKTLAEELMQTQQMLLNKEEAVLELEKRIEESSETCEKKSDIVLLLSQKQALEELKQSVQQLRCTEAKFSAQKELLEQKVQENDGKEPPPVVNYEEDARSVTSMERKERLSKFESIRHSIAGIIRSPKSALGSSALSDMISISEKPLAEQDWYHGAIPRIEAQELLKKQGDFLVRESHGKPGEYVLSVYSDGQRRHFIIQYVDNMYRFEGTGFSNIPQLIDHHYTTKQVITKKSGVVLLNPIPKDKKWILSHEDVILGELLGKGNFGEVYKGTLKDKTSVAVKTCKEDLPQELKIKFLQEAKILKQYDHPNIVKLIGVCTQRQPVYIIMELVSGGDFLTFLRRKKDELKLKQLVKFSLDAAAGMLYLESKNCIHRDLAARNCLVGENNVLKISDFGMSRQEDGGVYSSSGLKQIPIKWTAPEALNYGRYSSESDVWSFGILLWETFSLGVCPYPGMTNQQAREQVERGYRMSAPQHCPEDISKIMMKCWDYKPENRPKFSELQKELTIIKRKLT
In another assay the target is RPS6KA3 (Homo sapiens, UniProt P51812). The gist of the method: as §1
Another assay deals with TEK (Homo sapiens, UniProt Q02763). The gist of the method: as §1
The target in a further assay is IKBKE (Homo sapiens, UniProt Q14164). The method, boiled down: as §1
The next assay has as its target AAK1 (Homo sapiens, UniProt Q2M2I8). The method, boiled down:
as §1

The target in another assay is STK4 (Homo sapiens, UniProt Q13043). The gist of the method: as §1
Another assay has as its target CDK7 (Homo sapiens, UniProt P50613). The method, boiled down: as §1

TXK, sequence (P42681 whole entry): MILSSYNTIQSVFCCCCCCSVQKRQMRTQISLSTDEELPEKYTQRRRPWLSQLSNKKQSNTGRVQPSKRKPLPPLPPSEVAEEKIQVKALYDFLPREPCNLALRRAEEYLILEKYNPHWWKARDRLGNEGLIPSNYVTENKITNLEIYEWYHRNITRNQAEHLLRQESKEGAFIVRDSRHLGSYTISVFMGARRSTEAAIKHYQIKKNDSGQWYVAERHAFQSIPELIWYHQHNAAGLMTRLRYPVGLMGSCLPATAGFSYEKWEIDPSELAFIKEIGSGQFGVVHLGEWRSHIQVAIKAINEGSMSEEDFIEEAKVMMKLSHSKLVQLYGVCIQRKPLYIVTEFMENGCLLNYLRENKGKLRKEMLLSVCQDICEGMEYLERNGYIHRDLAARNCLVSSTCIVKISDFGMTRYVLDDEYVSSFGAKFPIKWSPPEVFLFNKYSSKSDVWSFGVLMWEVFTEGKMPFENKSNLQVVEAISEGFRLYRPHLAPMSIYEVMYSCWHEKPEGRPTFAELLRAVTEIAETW
LRRK2, sequence (Q5S007 whole entry): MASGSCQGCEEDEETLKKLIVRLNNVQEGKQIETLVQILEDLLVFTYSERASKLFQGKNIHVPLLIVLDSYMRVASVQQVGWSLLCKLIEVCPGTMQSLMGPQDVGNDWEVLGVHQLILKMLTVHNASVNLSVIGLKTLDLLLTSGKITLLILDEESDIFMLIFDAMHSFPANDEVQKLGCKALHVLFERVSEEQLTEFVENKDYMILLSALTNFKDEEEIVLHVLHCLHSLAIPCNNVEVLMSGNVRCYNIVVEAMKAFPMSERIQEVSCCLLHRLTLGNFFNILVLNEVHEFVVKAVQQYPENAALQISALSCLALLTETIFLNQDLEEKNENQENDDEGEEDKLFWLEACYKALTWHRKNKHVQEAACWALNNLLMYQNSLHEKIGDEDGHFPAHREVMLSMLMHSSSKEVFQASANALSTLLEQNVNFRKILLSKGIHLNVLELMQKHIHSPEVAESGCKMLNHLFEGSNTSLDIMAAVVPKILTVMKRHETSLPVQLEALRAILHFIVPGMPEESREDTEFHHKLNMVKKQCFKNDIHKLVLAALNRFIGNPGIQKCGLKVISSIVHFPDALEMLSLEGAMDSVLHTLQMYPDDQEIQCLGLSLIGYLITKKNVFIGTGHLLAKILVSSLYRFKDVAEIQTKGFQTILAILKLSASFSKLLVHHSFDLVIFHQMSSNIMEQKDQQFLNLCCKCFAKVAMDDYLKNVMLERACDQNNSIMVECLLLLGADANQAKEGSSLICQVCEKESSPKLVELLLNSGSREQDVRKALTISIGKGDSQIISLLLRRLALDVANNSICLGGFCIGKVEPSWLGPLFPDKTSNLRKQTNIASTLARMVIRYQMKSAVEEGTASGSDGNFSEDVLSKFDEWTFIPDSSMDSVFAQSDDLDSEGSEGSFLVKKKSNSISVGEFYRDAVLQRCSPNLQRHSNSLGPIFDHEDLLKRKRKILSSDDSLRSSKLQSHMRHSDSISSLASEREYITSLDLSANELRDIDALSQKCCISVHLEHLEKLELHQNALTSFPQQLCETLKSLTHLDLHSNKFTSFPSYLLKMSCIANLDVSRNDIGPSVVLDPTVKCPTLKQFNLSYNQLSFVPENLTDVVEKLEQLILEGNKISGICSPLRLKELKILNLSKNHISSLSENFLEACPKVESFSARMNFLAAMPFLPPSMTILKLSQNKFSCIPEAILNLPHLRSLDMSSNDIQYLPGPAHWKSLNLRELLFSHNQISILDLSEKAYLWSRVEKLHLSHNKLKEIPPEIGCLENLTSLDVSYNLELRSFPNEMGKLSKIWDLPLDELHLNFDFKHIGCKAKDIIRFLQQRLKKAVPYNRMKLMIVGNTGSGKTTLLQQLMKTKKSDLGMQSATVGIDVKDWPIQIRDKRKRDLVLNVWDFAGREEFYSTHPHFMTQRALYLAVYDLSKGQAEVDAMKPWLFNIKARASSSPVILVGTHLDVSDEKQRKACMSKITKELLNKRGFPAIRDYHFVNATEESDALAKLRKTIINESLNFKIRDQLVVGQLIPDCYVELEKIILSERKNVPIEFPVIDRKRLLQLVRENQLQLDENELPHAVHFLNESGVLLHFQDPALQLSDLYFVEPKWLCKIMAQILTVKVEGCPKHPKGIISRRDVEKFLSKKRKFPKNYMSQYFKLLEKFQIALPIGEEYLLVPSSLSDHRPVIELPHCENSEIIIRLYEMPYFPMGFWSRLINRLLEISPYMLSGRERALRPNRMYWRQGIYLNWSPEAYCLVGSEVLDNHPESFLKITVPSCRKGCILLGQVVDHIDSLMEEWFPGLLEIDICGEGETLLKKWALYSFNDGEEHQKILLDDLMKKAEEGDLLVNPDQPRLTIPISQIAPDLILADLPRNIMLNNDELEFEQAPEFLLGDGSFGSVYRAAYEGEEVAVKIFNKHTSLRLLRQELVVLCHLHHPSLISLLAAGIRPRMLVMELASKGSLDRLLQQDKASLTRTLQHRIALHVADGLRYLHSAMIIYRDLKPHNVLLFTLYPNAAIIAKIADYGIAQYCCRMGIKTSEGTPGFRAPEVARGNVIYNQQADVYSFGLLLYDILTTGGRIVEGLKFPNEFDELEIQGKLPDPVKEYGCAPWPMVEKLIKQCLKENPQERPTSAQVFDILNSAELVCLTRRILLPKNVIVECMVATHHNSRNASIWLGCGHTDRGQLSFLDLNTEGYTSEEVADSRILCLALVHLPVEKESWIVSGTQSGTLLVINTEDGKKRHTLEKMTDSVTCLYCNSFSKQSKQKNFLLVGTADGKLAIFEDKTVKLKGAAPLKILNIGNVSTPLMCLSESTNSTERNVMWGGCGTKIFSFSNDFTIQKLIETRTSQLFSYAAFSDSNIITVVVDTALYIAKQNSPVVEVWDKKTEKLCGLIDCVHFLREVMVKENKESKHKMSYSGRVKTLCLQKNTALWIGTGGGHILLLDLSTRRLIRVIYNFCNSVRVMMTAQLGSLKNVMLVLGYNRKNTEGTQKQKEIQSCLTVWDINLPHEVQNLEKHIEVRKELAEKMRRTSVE
CDK6, sequence (Q00534 whole entry): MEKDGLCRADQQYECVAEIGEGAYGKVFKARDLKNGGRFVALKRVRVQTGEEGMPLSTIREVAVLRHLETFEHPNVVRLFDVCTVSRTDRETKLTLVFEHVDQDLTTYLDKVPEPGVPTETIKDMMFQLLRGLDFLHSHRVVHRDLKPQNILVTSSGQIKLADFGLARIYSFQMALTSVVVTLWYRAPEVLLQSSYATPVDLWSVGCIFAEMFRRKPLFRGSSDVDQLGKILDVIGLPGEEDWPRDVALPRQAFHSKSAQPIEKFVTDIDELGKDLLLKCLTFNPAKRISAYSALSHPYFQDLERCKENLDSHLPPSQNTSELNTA

Take `C[C@@H](Oc1cc(-c2cnn(C3CCNCC3)c2)cnc1N)c1c(Cl)ccc(F)c1Cl` [crizotinib]: the inhibition at 1 µM on STK17B was 0%; on STK11, -1%; on IRAK4, 6%; at JNK3, -4%; at RPS6KA6, -10%; at LRRK2, -9%. The inhibition at 1 µM was 0% on CDK6; -8% at MYLK4; 2% on CDK16; -1% at MAP3K4; 18% at TXK; 16% at FER. Moreover, the inhibition at 1 µM is -7% at RPS6KA3; 37% at TEK; 21% at IKBKE; -14% at AAK1; 11% at STK4; 32% on CDK7.
